Tests used:
Assay in all cases: relative viability (nuclei count vs DMSO), 5 days (fraction); higher = more cells survive
Nelarabine + Pemetrexed = compound: COc1nc(N)nc2c1ncn2[C@@H]1O[C@H](CO)[C@@H](O)[C@@H]1O [Nelarabine] + Nc1nc2[nH]cc(CCc3ccc(C(=O)N[C@@H](CCC(=O)O)C(=O)O)cc3)c2c(=O)[nH]1 [Pemetrexed] (partner 0.2 µM)
Summary of the method: (§1)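 Medians of duplicate plates are given as relative viability. That measure is the nuclei count in treated wells divided by the count in vehicle wells. Counts were taken on 4× images of lung cancer cell lines in 1536-well plates, 5 days after pin-tool dosing the day after seeding with one drug alone or a fixed anchor-drug dose plus five library-drug doses (not always all listed) in √10 steps.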

Adavosertib + OSI-027 = compound: C=CCn1c(=O)c2cnc(Nc3ccc(N4CCN(C)CC4)cc3)nc2n1-c1cccc(C(C)(C)O)n1 [Adavosertib] + COc1cccc2cc(-c3nc([C@H]4CC[C@H](C(=O)O)CC4)n4ncnc(N)c34)[nH]c12 [OSI-027] (partner 0.5 µM)
Summary of the method: as §1

Nelarabine = compound: COc1nc(N)nc2c1ncn2[C@@H]1O[C@H](CO)[C@@H](O)[C@@H]1O [Nelarabine]
Summary of the method: (§2)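 Cells of lung cancer lines were placed in 1536-well plates and kept overnight at 37 °C. Pinning then delivered five library-drug doses (not always all listed), spaced by √10, onto plates anchored with vehicle, and the cells were left 5 days without changing medium. One step fixed, permeabilised and stained them with Hoechst, and MetaXpress counted nuclei in 4× images. Viability, as a median over plates, is treated-well nuclei divided by vehicle-well nuclei, with acceptance only at control CV below 25% and at least one doubling.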

Adavosertib = compound: C=CCn1c(=O)c2cnc(Nc3ccc(N4CCN(C)CC4)cc3)nc2n1-c1cccc(C(C)(C)O)n1 [Adavosertib]
Summary of the method: as §2

Cell Line | relative viability (Nelarabine + Pemetrexed; first compound 0.01 µM) | relative viability (Nelarabine + Pemetrexed; first compound 0.03162 µM) | relative viability (Nelarabine + Pemetrexed; first compound 0.1 µM) | relative viability (Nelarabine + Pemetrexed; first compound 0.3162 µM) | relative viability (Nelarabine + Pemetrexed; first compound 1 µM) | relative viability (Adavosertib + OSI-027; first compound 0.01 µM) | relative viability (Adavosertib + OSI-027; first compound 0.03162 µM) | relative viability (Adavosertib + OSI-027; first compound 0.1 µM) | relative viability (Adavosertib + OSI-027; first compound 0.3162 µM) | relative viability (Nelarabine; 0.01 µM) | relative viability (Nelarabine; 0.03162 µM) | relative viability (Nelarabine; 0.1 µM) | relative viability (Nelarabine; 0.3162 µM) | relative viability (Nelarabine; 1 µM) | relative viability (Adavosertib; 0.01 µM) | relative viability (Adavosertib; 0.03162 µM) | relative viability (Adavosertib; 0.1 µM) | relative viability (Adavosertib; 0.3162 µM)
NCI-H1915 | 0.676 | 0.539 | 0.561 | 0.658 | 0.699 | 0.677 | 0.606 | 0.69 | 0.586 | 1.15 | 1.03 | 1.02 | 1 | 1.05 | 0.999 | 1.01 | 1.06 | 0.996
ChaGo-K-1 | 0.242 | 0.249 | 0.261 | 0.258 | 0.252 | 0.546 | 0.633 | 0.511 | 0.591 | 1.05 | 0.912 | 0.962 | 0.964 | 0.962 | 0.947 | 0.995 | 1.05 | 0.918
PC-14 | 0.136 | 0.138 | 0.125 | 0.142 | 0.158 | 0.916 | 0.835 | 0.846 | 0.114 | 1.19 | 0.99 | 1.21 | 1.07 | 1.03 | 1.01 | 1.01 | 1.01 | 0.605
LK-2 | 0.191 | – | 0.26 | 0.273 | 0.294 | 0.17 | 0.208 | 0.207 | 0.216 | 1.28 | – | 0.978 | 1.09 | 1.14 | 0.994 | 1.16 | 1.08 | 1.05
COR-L 105 | 1.11 | 1.26 | 1.16 | 1.15 | 1.08 | 0.598 | 0.677 | 0.558 | 0.503 | 1.01 | 1.12 | 0.971 | 0.842 | 1.04 | 0.865 | 0.885 | 0.807 | 0.747
NCI-H1563 | 0.765 | 0.811 | 0.77 | 0.812 | 0.787 | 0.737 | 0.812 | 0.766 | 0.757 | 1.04 | 1.03 | 0.951 | 0.985 | 0.986 | 0.954 | 0.894 | 0.917 | 1.01
UMC-11 | 0.992 | 0.696 | 0.94 | 0.816 | 0.884 | 0.48 | 0.442 | 0.432 | 0.444 | 1.1 | 0.821 | 0.987 | 1.07 | 0.996 | 0.973 | 0.943 | 1 | 1.08
NCI-H1975 | 0.376 | 0.278 | 0.312 | 0.305 | 0.303 | 0.733 | 0.644 | 0.606 | 0.493 | 1.21 | 1.01 | 1.14 | 1.17 | 1.04 | 0.971 | 0.899 | 0.935 | 0.759
LXF-289 | 1 | 0.833 | 0.866 | 0.973 | 0.906 | 0.809 | 0.678 | 0.721 | 0.938 | 1.11 | 1.04 | 1.01 | 1.05 | 0.995 | 1.02 | 0.988 | 1.01 | 1.04

Source: the supplement of paper PMC10307832
